Results: article PMC10255231, “Cytotoxic, Anti-Hemolytic, and Antioxidant Activities of Ruta chalepensis L. (Rutaceae) Extract, Fractions, and Isolated Compounds” (Plants, 2023)
≈ marks a conversion by molar mass, not a printed value.

Tests used:
human red blood cells [1] = test: Hemolytic activity test; type: cell-based; conditions: human erythrocytes, PBS pH 7.4; for IC50: Erythrocyte
Protocol: The hemolytic activity was assessed using the hemolysis test at treatment concentrations ranged from 7.81 µg/mL to 1000 µg/mL in PBS at pH 7.4. IC50 values were defined as the sample concentration needed to cause 50% hemolysis of human red blood cells. The percentage of hemolysis was determined by measuring ODs at 540 nm as follows (4):(4) Hemolysis %=OD540nm Treatment/OD540nm Positive control×100

VERO cells = test: MTT cell viability assay, normal VERO cells; type: cell-based, African green monkey; conditions: Chlorocebus sabaeus, 72 h
Text: (§1) The human hepatocellular carcinoma cell line HEP-G2 (ATCC HB-8065) and the monkey kidney epithelial cell line VERO (ATCC CCL-81) were obtained from the Laboratory of Immunology and Virology in FCB at UANL (FCB-UANL), México, and cultured in DMEM, supplemented with 10% heat-inactivated FBS, 2% NaHCO3, and HEPES [57]. Murine lymphoma L5178Y-R cells (ATCC CRL-1722) and human peripheral blood mononuclear cells (PBMC) were maintained in RPMI-1640 culture medium, supplemented with 10% heat-inactivated FBS and 1% antibiotic/antimycotic solution [26]. Assays were conducted with adherent HEP-G2 and VERO cells on flat-bottom microplates and non-adherent L5178Y-R and PBMC cells were evaluated on round-bottom microplates.
(§2) Cells were cultured at 37 °C and 5% CO2 in 95% air in a humidified incubator, in the presence or absence of treatments for 72 h. After which they were incubated with MTT (0.5 mg/mL final concentration) at 37 °C in 5% CO2 for 3 h and supernatants were discarded after the incubation period. Resulting formazan crystals were dissolved in DMSO, and optical densities (OD) were measured at 540 nm, using a microplate reader (Molecular Devices Corporation in Palo Alto, CA). In addition, […] (IC50) values were determined after 72 h incubation with treatments at concentrations ranging from 7.81 µg/mL to 1000 µg/mL and ODs were measured at 570 nm on a microplate reader (Molecular Devices Corporation). The positive control consisted of 0.05 µg/mL VS and the negative control was culture medium alone. All treatments were diluted in DMSO to a final well test concentration not exceeding 0.5% (v/v). Cell viability was determined using the following Formula (2):(2) Cell viability %=OD570nmTreatment/OD570nmNegative control×100

human red blood cells [2] = test: Anti-hemolytic activity test (AAPH inhibition); type: cell-based; conditions: human erythrocytes, AAPH 150 mM, PBS pH 7.4
Protocol: The AAPH inhibition test was used to determine the anti-hemolytic activity, as previously reported. Hemolysis was induced by the AAPH radical (150 mM in PBS) as a positive control. Treatment concentrations ranged from 7.81 µg/mL to 1000 µg/mL in PBS at pH 7.4 plus AAPH. IC50 values were defined as the sample concentration needed to cause 50% hemolysis of human red blood cells. The anti-hemolytic activity was evaluated using the following Formula (5):(5) % Anti−hemolytic Activity=1−OD570nm Treatment/OD570nm Positive control×100

PBMC = test: MTT cell viability assay, normal PBMC; type: cell-based; conditions: Homo sapiens, 72 h, normal cells
Text: as §1, §2

HEP-G2 cells = test: MTT cell viability assay, HEP-G2 tumor cells; type: cell-based; conditions: Homo sapiens, HepG2, 72 h
Text: as §1, §2
To determine the selectivity index (SI) for each treatment, we divided the IC50 of […]. SI was assessed for adherent cells (non-tumor/tumor) and for non-adherent cells (non-tumor/tumor). […] SI was calculated using the following Formula (3):(3) SI=IC50 Normal Cells/IC50 Tumor Cells

L5178Y-R cells = test: MTT cell viability assay, L5178Y-R lymphoma cells; type: cell-based, murine; conditions: Mus musculus, 72 h, tumor cells
Text: as §1
Cells were cultured at 37 °C and 5% CO2 in 95% air in a humidified incubator, in the presence or absence of treatments for 72 h. […] Resulting formazan crystals were dissolved in DMSO, and optical densities (OD) were measured at 540 nm, using a microplate reader (Molecular Devices Corporation in Palo Alto, CA). […] Cell viability was determined using the following Formula (2):(2) Cell viability %=OD570nmTreatment/OD570nmNegative control×100
To determine the selectivity index (SI) for each treatment, we divided the IC50 of […]. SI was assessed for adherent cells (non-tumor/tumor) and for non-adherent cells (non-tumor/tumor). […]

SMILES	IC50 (human red blood cells [1])	Hemolytic Activity IC50 (human red blood cells [1])	IC50 (VERO cells)	IC50 (human red blood cells [2]; Erythrocyte)	IC50 (PBMC)	IC50 (HEP-G2 cells)	IC50 (L5178Y-R cells)	Anti-Hemolytic Activity IC50 (human red blood cells [2])
C=CC(C)(C)c1cc2cc3ccoc3cc2oc1=O [CHL, Chalepensin]	101 ± 4.2 µg/mL (≈ 397 µM)	did not show significant hemolytic activity	387 ± 9.24 µg/mL (≈ 1520 µM)	180 ± 4.76 µg/mL (≈ 707 µM)	226 ± 5.67 µg/mL (≈ 891 µM)	76.2 ± 2.85 µg/mL (≈ 300 µM)	–	–
Cn1c(-c2ccc3c(c2)OCO3)cc(=O)c2ccccc21 [GRV, Graveoline]	57.6 ± 11.3 µg/mL (≈ 206 µM)	–	179 ± 7.39 µg/mL (≈ 640 µM)	–	159 ± 30.6 µg/mL (≈ 569 µM)	54.6 ± 3.34 µg/mL (≈ 196 µM)	< 50 µg/mL	did not exhibit any anti-hemolytic activity
C=CC(C)(C)c1cc2cc3c(cc2oc1=O)OC(C(C)(C)OC(C)=O)C3 (stereo not drawn) [RTM, Rutamarin]	> 1500 µg/mL	did not show significant hemolytic activity	430 ± 4.07 µg/mL (≈ 1210 µM)	–	151 ± 10.1 µg/mL (≈ 424 µM)	130 ± 3.68 µg/mL (≈ 364 µM)	–	did not exhibit any anti-hemolytic activity
